Where “and” joins values, the source holds several entries; their conditions need not be identical. Identical values can stand only once. Entries after “also recorded” stand apart in the source; their conditions may differ. Like-named read-outs stand apart in the source and are kept apart here.
Columns and labels:
[1] = system: recombinant TcIMPDH; assay: TcIMPDH Michaelis-Menten kinetics, NADH fluorescence direct assay; type: biochemical, Trypanosoma cruzi; conditions: 25°C, pH 7, other substrate at 1 mM, 1 μM enzyme
Procedure: Em = 485 nm) at 25°C, in black 384-wells microplates. Fluorescence was recorded every 30 s over 10 min using a CLARIOstar plate reader (BMG LabTech) and steady-state velocities were calculated from the maximum slope of the fluorescence curve. All reactions were performed in triplicate, under optimized buffer conditions: 50 mM tri-sodium citrate (pH 7), 100 mM KCl, and 1 mM DTT. For both substrates, 1 μM of purified recombinant […] was used.

[2] = system: T. brucei IMPDH; design: method as in PMID 23369253; conditions: read-out: Km of T. brucei IMPDH for substrate; cited from earlier work
[3] = system: L. donovani IMPDH; conditions: read-out: Km of L. donovani IMPDH for substrate; cited from earlier work
[4] = system: human IMPDHs; conditions: read-out: Km of human IMPDHs for substrate; cited from earlier work
[5] = target: T. cruzi IMPDH (Trypanosoma cruzi, UniProt Q4CUG6); assay: biochemical
Chain of T. cruzi IMPDH (Q4CUG6 entry or part of it): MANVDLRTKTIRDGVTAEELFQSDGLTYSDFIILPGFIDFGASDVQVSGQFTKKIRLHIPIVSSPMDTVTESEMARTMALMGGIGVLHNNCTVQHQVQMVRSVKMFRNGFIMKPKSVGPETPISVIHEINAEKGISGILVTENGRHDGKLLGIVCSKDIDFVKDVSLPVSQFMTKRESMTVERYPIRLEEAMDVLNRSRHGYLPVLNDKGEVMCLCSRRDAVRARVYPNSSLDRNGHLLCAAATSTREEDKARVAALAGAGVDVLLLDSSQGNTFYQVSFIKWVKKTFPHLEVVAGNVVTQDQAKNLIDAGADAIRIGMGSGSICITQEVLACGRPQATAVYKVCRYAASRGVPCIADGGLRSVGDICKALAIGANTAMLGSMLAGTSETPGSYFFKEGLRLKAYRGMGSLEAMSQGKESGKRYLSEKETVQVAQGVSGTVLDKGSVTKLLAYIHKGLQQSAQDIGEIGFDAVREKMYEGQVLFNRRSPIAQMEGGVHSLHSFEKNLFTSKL
Procedure: (§1) Compounds were assayed at a single concentration of 10 μM. They were provided by GSK (GlaxoSmithKline) in a 384-well ready-to-use assay microplate containing 25 nL of each sample at 10 mM (100% DMSO). […] Velocities at steady state were calculated in the plate reader (CLARIOstar, BMG LabTech) as the maximum slope. […] After 15 min, resorufin fluorescence (Ex = 570 nm; Em = 590 nm) was measured in a plate reader (CLARIOstar, BMG LabTech). Data were normalized and plotted using GraphPad Prism 9.5.0.
The above-mentioned diaphorase-coupled assay was used. […] TcIMPDH activity was normalized, and the IC50 was calculated using GraphPad Prism 9.5.0.

[6] = target: TcIMPDH (Trypanosoma cruzi, UniProt Q4CUG6); assay: Chagas Box single-concentration screening for TcIMPDH inhibitors; type: biochemical
Chain of TcIMPDH (Q4CUG6 entry or part of it): as above
Procedure: as §1

[7] = system: T. cruzi amastigotes; design: method as in PMID 25740547; conditions: calculated from reported pEC50 value; read-out: EC50 anti-amastigote activity, previously reported; cited from earlier work
[8] = system: CYP51; design: method as in PMID 25740547; conditions: cited from earlier work
[9] = system: T. cruzi amastigotes in H9c2 cells; assay: Image-based infection assay, intracellular amastigotes in H9c2 host cells; type: cell-based; conditions: Trypanosoma cruzi, read-out: EC50 against T. cruzi amastigotes in H9c2 cells
Procedure: To determine EC50 to kill intracellular amastigotes in H9c2 host cells, we used an image-based assay previously described in Alonso-Padilla et al. ([56]). Briefly, T. cruzi trypomastigotes (from LLC-MK2 supernatant) were used to infect H9c2 rat cardiomyocytes overnight. After washing, cells were incubated for 48 h in fresh DMEM, then seeded (1.5 × 10^3 cells/well) into 384-well plates with 50 µL assay volume (0.4% DMSO) containing 0.2 µL of compounds. After 72 h, cells were washed, fixed with 4% paraformaldehyde, and stained with Hoechst 33,342 (4 µg/mL). Images (five per well) were acquired using an Operetta microscope (20× objective) and analyzed with Columbus software. Data on cell count and infection ratio were processed in GraphPad Prism 9.5.0.

[10] = system: T. cruzi; design: method as in PMID 12070425; conditions: cited from earlier work
[11] = target: human IMPDH isoenzymes; conditions: cited from earlier work
[12] = read-out: IC50 against T. cruzi IMPDH
[13] = H9c2, 72 h, image-based, at least two biological replicates

For NC(=O)c1ccc[n+]([C@@H]2O[C@H](COP(=O)([O-])OP(=O)(O)OC[C@H]3O[C@@H](n4cnc5c(N)ncnc54)[C@H](O)[C@@H]3O)[C@@H](O)[C@H]2O)c1 [NAD^+, nicotinamide adenine dinucleotide oxidized form], the Km [1] is given as 292 µM, the Km [2] is given as 1300 µM and the Km [3] is given as 390 µM. For the same compound, the Km [4] was 6 to 70 µM.

COc1cc(NC(=O)Nc2cccc(CNC(=O)OC3CCCCC3)c2)ccc1-c1cnco1 [TCMDC-143376] gave an IC50 [5, 12] of 4 µM, an inhibition at 10 µM ([6]; 10 μM compound, two independent runs, read-out: inhibition of TcIMPDH in primary screening) of 55 to 60% and an IC50 ([6]; estimated from inhibition at the fixed concentration 10 μM, read-out: IC50 suggested by screening) of under 10 µM. The EC50 [7] was ~15.9 µM and 15.9 µM and the IC50 [8] was about 25 µM.

In the case of COc1cc(NC(=O)Nc2cccc(CNC(=O)O[C@H]3CCOC3)c2)ccc1-c1cnco1 [(S)-Merimepodib], the IC50 [5] is reported as 0.21 µM and the EC50 [9, 13] is reported as 4.8 µM.

Work on COc1cc(NC(=O)Nc2cccc(CNC(=O)O[C@@H]3CCOC3)c2)ccc1-c1cnco1 [(R)-Merimepodib] yielded an IC50 [5] of 0.37 µM and an EC50 [9, 13] of 3 µM.

O=C(Cn1ccnc1[N+](=O)[O-])NCc1ccccc1 [Benznidazole] showed an EC50 [9, 13] of 3 µM.

In the case of COc1c(C)c2c(c(O)c1C/C=C(\C)CCC(=O)OCCN1CCOCC1)C(=O)OC2 [Mycophenolate mofetil], the IC50 [5, 12] is listed as 4.4 µM, the EC50 [9, 13] is listed as 1.5 µM and the “parasitemia in Chagas murine model” value [10] is listed as “reduction of parasitemia”. The “survival / parasitological cure in Chagas murine model” value [10] was “fails to improve survival outcomes or achieve parasitological cure”.

In the case of NC(=O)c1ncn([C@@H]2O[C@H](CO)[C@@H](O)[C@H]2O)c1O [Mizoribine], the “inhibition of TcIMPDH activity” value [5] is reported as “did not show measurable inhibition; also recorded: inactive”.

CC[C@H](CC#N)OC(=O)N[C@@H](C)c1cccc(NC(=O)Nc2ccc(-c3cnco3)c(OC)c2)c1 [AVN-944] showed an IC50 [5] of 0.2 µM, a Ki [5] of about 0.081 µM and an EC50 ([9]; H9c2, 72 h) of 0.4 µM. The Ki [11] was 0.006 to 0.01 µM.

Reference: PMC12959148, “Exploring T. cruzi IMPDH as a promising target through Chagas Box screening and AVN-944 inhibition” (Antimicrobial Agents and Chemotherapy, 2026)
